Data taken from US11077115B2, “Rorgamma modulators and uses thereof” (Genfit, priority 2017, dated 2021).

Assays:
human RORγt [1] = molecular target: T1, human RORγt (Homo sapiens, UniProt P51449); test: IL-17 secretion from EL4 murine lymphoma overexpressing human RORγt; type: cell-based; design: V5-His (named only through the vector pcDNA3.1D/V5-His-TOPO); expressed in transfected cells; settings: IL-17 secretion inhibition in human RORγt-transfected EL4 Tcells, PMA/ionomycin stimulation
T1 sequence (P51449 1-497 isoform P51449-2): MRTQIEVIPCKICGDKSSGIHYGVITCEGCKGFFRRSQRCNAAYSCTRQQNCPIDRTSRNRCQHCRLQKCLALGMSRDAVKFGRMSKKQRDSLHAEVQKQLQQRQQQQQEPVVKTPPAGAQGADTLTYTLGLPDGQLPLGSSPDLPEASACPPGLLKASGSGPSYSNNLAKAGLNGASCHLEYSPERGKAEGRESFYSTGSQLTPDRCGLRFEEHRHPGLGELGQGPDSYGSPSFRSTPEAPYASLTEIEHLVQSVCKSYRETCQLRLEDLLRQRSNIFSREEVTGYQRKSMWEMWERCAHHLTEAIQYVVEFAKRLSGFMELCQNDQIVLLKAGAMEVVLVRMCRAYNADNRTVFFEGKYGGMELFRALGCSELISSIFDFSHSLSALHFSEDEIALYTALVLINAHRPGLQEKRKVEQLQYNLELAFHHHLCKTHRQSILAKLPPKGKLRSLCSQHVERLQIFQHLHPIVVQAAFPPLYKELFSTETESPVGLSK
Procedure: Murine EL-4 lymphoma cell line overexpressing human RORγt was used in this functional assay to assess compound ability to inhibit IL-17 cytokine secretion.
EL-4 cells are maintained in a standard culture medium RPMI supplemented with 10% fetal calf serum, 1% sodium pyruvate, 1% essential amino acids and 1% antibiotics at 37° C. in a humidified atmosphere of 5% CO2 and 95% air. Culture medium was changed every 2 days. EL4 cells were transfected with a plasmid encoding hRORγt (sequence identical to published sequence NM 001001523). […] Briefly, 1 μg of DNA/1 million cells was served to transfect EL-4 cells. Cell/DNA suspension was transferred into certified cuvette and the electroporation of RORγt plasmid was carried out using appropriate Nucleofector® program.
Cells were seeded in 96 well plates at a density of 150000 cells/well then treated with compounds of this invention at indicated concentrations and incubated for 24 hours at 37° C. in a humidified atmosphere of 5% CO2 and 95% air. EL-4 cells were pretreated with test compounds (RORγ modulators) and stimulated with PMA (10 ng/mL) and ionomycin (1 μM final concentration) in the presence of test compound concentrations for additional 24 h at 37° C. in a humidified atmosphere of 5% CO2 and 95% air. Subsequently, supernatants were collected (after centrifugation at 300 g for 10 minutes) to determine the concentrations of IL-17 by HTRF (CisBio, France) or ELISA (R&D Systems Europe) according to the manufacturer's protocols.

human RORγt [2] = molecular target: T1, human RORγt; test: RORE Luciferase/RORγt transactivation assay (IL-17 promoter luciferase reporter in COS-7 cells); type: cell-based; design: V5-His (named only through the vector pcDNA3.1D/V5-His-TOPO); expressed in transfected cells; host or cells: COS-7 (monkey kidney); settings: RORγt activity inhibition, luciferase activity in transfected COS-7 cells, 20 h
Summary of the method: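 COS-7 cells co-transfected with human RORγt and luciferase reporter driven by 4.3 kb IL-17 promoter with CNS enhancer, seeded in serum-free, phenol red-free DMEM. Compounds added at 0.3% DMSO final; luciferase read by Steady-Glo luminescence. IC50 (μM) and Emax (%) reported.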

[3] = molecular target: T2, RORγt ligand-binding domain (RORγt-LBD) (Homo sapiens, UniProt P51449); test: Time-resolved FRET (TR-FRET) RORγt coactivator assay (RIP140 peptide displacement); type: biochemical; settings: ligand-dependent coactivator-RORγt binding
T2 construct: 20 nM recombinantly expressed RORγ-LBD fused to GST
T2 sequence (P51449 269-508 limits assumed): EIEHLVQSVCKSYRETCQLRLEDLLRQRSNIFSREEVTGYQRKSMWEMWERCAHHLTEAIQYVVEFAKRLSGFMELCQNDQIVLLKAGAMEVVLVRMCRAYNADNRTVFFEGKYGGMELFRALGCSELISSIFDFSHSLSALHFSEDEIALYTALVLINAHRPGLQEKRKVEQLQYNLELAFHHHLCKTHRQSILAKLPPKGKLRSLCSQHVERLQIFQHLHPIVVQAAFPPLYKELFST
Summary of the method: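 GST-tagged RORγt-LBD (20 nM) with 30 nM biotinylated RIP140 peptide, 1 nM streptavidin-terbium and 20 nM d2-anti-GST in CHAPS buffer with DTT, EDTA, BSA; 1% DMSO. Compounds 0.3 nM–30 μM, 2 h dark, room temperature. Coactivator displacement lowers TR-FRET signal; IC50 (μM) and Emax (%) derived.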

multiple sclerosis model = settings: administered by injection; cited from earlier work
psoriasis model = settings: administered by injection; cited from earlier work
[4] = tested on: patients with moderate to severe psoriasis; settings: cited from earlier work
[5] = relative to placebo, patients with moderate to severe psoriasis

SMILES | IC50 (human RORγt [1]) [µM] | IC50 (human RORγt [2]) [µM] | IC50 [3] [µM] | also measured
Cc1ccc(C(NC(=O)Cc2ccc(O)c(N3CCS(=O)(=O)CC3)c2)c2ccc(C)o2)c(N2CCCCC2)c1 (stereo not drawn) [Cpd. 39, 2-[3-(1,1-dioxo-1-thiomorpholin-4-yl)-4-hydroxyphenyl]-N-{[4-methyl-2-(piperidin-1-yl)phenyl](5-methylfuran-2-yl)methyl}acetamide] | < 1 | < 0.1 | < 1 | 
COc1ccc(C(NC(=O)C2(c3ccc(N4CCS(=O)(=O)CC4)cc3)CC2)c2ccc(C)o2)c(N2CCCCCC2)c1 (stereo not drawn) [Cpd. 46, N-{[2-(azepan-1-yl)-4-methoxyphenyl](5-methylfuran-2-yl)methyl}-1-[4-(1,1-dioxo-1-thiomorpholin-4-yl)phenyl]cyclopropane-1-carboxamide] | < 1 | < 0.1 | 0.1 to 1 | 
Cc1ccc(C(NC(=O)C2(c3cnc(N4CCS(=O)(=O)CC4)nc3)CC2)c2ccc(C)o2)c(C)c1 (stereo not drawn) [Cpd. 48, N-[(2,4-dimethylphenyl)(5-methylfuran-2-yl)methyl]-1-[2-(1,1-dioxo-1-thiomorpholin-4-yl)pyrimidin-5-yl]cyclopropane-1-carboxamide] | < 1 | < 0.1 | < 1 | 
Cc1ccc(C(NC(=O)C2(c3cnc(N4CCS(=O)(=O)CC4)nc3)CC2)c2ccc(C)o2)c(Cl)c1 (stereo not drawn) [Cpd. 52, N-[(2-chloro-4-methylphenyl)(5-methylfuran-2-yl)methyl]-1-[2-(1,1-dioxo-1-thiomorpholin-4-yl)pyrimidin-5-yl]cyclopropane-1-carboxamide] | 0.1 to 1 | 1 to 10 | < 1 | 
Cc1ccc(C(NC(=O)C2(c3cnc(N4CCS(=O)(=O)CC4)nc3)CC2)c2ccc(Cl)cc2C)o1 (stereo not drawn) [Cpd. 53, N-[(4-chloro-2-methylphenyl)(5-methylfuran-2-yl)methyl]-1-[2-(1,1-dioxo-1-thiomorpholin-4-yl)pyrimidin-5-yl]cyclopropane-1-carboxamide] | 0.1 to 1 | < 0.1 | < 1 | 
Cc1ccc(C(NC(=O)C2(c3cnc(N4CCS(=O)(=O)CC4)nc3)CC2)c2ccc(Cl)cc2Cl)o1 (stereo not drawn) [Cpd. 54, N-[(2,4-dichlorophenyl)(5-methylfuran-2-yl)methyl]-1-[2-(1,1-dioxo-1-thiomorpholin-4-yl)pyrimidin-5-yl]cyclopropane-1-carboxamide] | 0.1 to 1 | 0.1 to 1 | < 1 | 
CC(C)CC(NC(=O)C1(c2ccc(N3CCS(=O)(=O)CC3)cc2)CC1)c1ccccc1N1CCCCC1 (stereo not drawn) [Cpd. 59, 1-[4-(1,1-dioxo-1-thiomorpholin-4-yl)phenyl]-N-[3-methyl-1-[2-(piperidin-1-yl)phenyl]butyl]cyclopropane-1-carboxamide] | 0.1 to 1 | 1 to 10 | 0.1 to 1 | 
Cc1ccc(C(NC(=O)C2(c3ccc(N4CCS(=O)(=O)CC4)cc3)CC2)c2ccccc2N2CCCCC2)o1 (stereo not drawn) [Cpd. 60, 1-[4-(1,1-dioxo-1-thiomorpholin-4-yl)phenyl]-N-[(5-methylfuran-2-yl)[2-(piperidin-1-yl)phenyl]methyl]cyclopropane-1-carboxamide] | < 1 | 0.1 to 1 | < 1 | 
Cc1ccc(C(NC(=O)C2(c3ccc(N4CCS(=O)(=O)CC4)cc3)CC2)c2ccc(Cl)o2)c(C)c1 (stereo not drawn) [Cpd. 66, N-[(5-chlorofuran-2-yl)(2,4-dimethylphenyl)methyl]-1-[4-(1,1-dioxo-1-thiomorpholin-4-yl)phenyl]cyclopropane-1-carboxamide] | < 1 | < 0.1 | < 1 | 
Cc1ccc(C(NC(=O)C2(c3ccc(N4CCS(=O)(=O)CC4)c(C)n3)CC2)c2ccc(C)o2)c(C)c1 (stereo not drawn) [Cpd. 71, N-[(2,4-dimethylphenyl)(5-methylfuran-2-yl)methyl]-1-[5-(1,1-dioxo-1-thiomorpholin-4-yl)-6-methylpyridin-2-yl]cyclopropane-1-carboxamide] | 0.1 to 1 | < 0.1 | < 1 | 
CC(=O)Nc1nc(C)c(S(=O)(=O)Nc2ccc(C(O)(C(F)(F)F)C(F)(F)F)cc2)s1 [SR1001] |  |  |  | efficacy in multiple sclerosis model (multiple sclerosis model): efficacious
Cc1ccc([C@@H](NC(=O)Cc2ccc3oc([C@@H](O)c4c(C)noc4C)cc3c2)c2ccccc2)c(C)c1 [TMP778] |  |  |  | efficacy in psoriasis model (psoriasis model): efficacious
CCS(=O)(=O)c1ccc(CNC(=O)c2cnc3c(c2)CN(C[C@H]2CC[C@H](C(F)(F)F)CC2)[C@H]3C(C)C)nc1 [VTP-43742] |  |  |  | reduction in the Psoriasis Area Severity Index (PASI) score relative to placebo ([4]; 350 mg dose group): 24%; placebo-adjusted PASI score reduction ([4]; 700 mg dose group): 30%; Psoriasis Area Severity Index (PASI) score [4, 5]: reduced; plasma IL-17 levels [4, 5]: reduced
